Measurements from ChEMBL document CHEMBL5214922, “Melphalan: Recent insights on synthetic, analytical and medicinal aspects” (Eur J Med Chem, 2022).
pIC50: −log10 of the molar value. Converted amounts (≈) assume the structure as drawn. Non-standard residues stand in square brackets, D forms with d. Residues, ends and D or L forms follow the SMILES beside them. ξ: configuration not given here. *: point of attachment. ξPhe(4-N(CH2CH2Cl)2) = NC(Cc1ccc(N(CCCl)CCCl)cc1)C(=O)O; X1 = O=P(O)(O)C(CN*)P(=O)(O)O

Experiments:
MCF7 [1] = test: Cytotoxicity against human MCF7 cells assessed as cell growth inhibition incubated for 48 hrs by AlamarBlue assay; format: functional, cell-based; conditions: MCF7, 48 h
[2] = Cytotoxicity against CHO cells assessed as cell growth inhibition incubated for 48 hrs by AlamarBlue assay; format: toxicity, cell-based, Cricetulus griseus; conditions: Chinese hamster
[3] = Retention time of the compound by HPLC analysis; format: physicochemical
[4] = Biodistribution in mouse CCRF S-180 tumor cells xenografted in ICR mouse measured after 120 mins; format: ADME, organism-based; conditions: read-out: Drug uptake
K562 = test: Cytotoxicity against human K562 cells assessed as cell growth inhibition incubated for 24 hrs by MTT assay; format: functional, cell-based; conditions: K562, 24 h
SK-OV-3 = test: Cytotoxicity against human SK-OV-3 cells assessed as inhibition of cell proliferation incubated for 24 hrs by MTT assay; format: functional, cell-based; conditions: SK-OV-3, 24 h
[5] = Biodistribution in mouse CCRF S-180 tumor cells xenografted in ICR mouse measured after 240 mins; format: ADME, organism-based; conditions: read-out: Drug uptake
HT-29 = test: Cytotoxicity against human HT-29 cells assessed as cell growth inhibition measured after 24 hrs by MTT assay; format: functional, cell-based; conditions: HT-29, 24 h
H-EMC-SS = test: Cytotoxicity against human H-EMC-SS cells assessed as cell growth inhibition incubated for 72 hrs by resazurin reduction method; format: functional, cell-based
SAOS-2 [6] = test: Cytotoxicity against human SAOS-2 cells assessed as cell growth inhibition incubated for 72 hrs by resazurin reduction method; format: functional, cell-based; conditions: SAOS-2, 72 h
MCF7 [7] = test: Cytotoxicity against human MCF7 cells assessed as cell growth inhibition incubated for 24 hrs by MTT assay; format: functional, cell-based; conditions: MCF7, 24 h
MDA-MB-231 [8] = test: Cytotoxicity against human MDA-MB-231 cells assessed as reduction in cell viability at 15 uM incubated for 24 hrs by MTT assay relative to control; format: functional
MDA-MB-231 [9] = test: Inhibition of DNA synthesis in human MDA-MB-231 cells at 15 uM incubated upto 72 hrs by [3H]thymidine incorporation assay relative to control; format: functional
MC3T3-E1 = test: Cytotoxicity against mouse MC3T3-E1 cells assessed as cell growth inhibition; format: functional, cell-based
SAOS-2 [10] = test: Cytotoxicity against human SAOS-2 cells assessed as cell growth inhibition; format: functional, cell-based
[11] = molecular target: 72 kDa type IV collagenase (Homo sapiens, UniProt P08253); test: Prodrug conversion assessed as MMP-2 (unknown origin)-mediated drug release by measuring half life by HPLC analysis; format: ADME
[12] = Prodrug conversion assessed as drug excretion measured after 6 days by HPLC analysis; format: ADME; conditions: 144 h; time 6 day
U2OS = test: Cytotoxicity against human U2OS cells assessed as cell growth inhibition; format: functional, cell-based
Lymphoma cell line [13] = test: Potency index, ratio of Melphalan IC50 to test compound IC50 for cytotoxicity against patient-derived human lymphoma cells assessed as cell growth inhibition incubated for 72 hrs by FMCA assay; format: functional
Lymphoma cell line [14] = test: Cytotoxicity against patient-derived human lymphoma cells assessed as cell growth inhibition incubated for 72 hrs by FMCA assay; format: functional, cell-based
[15] = Plasma protein binding in human assessed as unbound fraction; format: ADME
[16] = Plasma protein binding in human by ultrafiltration method; format: ADME; conditions: read-out: PPB (converted)
[17] = Plasma protein binding in human; format: ADME

72 kDa type IV collagenase, sequence (P08253 whole entry): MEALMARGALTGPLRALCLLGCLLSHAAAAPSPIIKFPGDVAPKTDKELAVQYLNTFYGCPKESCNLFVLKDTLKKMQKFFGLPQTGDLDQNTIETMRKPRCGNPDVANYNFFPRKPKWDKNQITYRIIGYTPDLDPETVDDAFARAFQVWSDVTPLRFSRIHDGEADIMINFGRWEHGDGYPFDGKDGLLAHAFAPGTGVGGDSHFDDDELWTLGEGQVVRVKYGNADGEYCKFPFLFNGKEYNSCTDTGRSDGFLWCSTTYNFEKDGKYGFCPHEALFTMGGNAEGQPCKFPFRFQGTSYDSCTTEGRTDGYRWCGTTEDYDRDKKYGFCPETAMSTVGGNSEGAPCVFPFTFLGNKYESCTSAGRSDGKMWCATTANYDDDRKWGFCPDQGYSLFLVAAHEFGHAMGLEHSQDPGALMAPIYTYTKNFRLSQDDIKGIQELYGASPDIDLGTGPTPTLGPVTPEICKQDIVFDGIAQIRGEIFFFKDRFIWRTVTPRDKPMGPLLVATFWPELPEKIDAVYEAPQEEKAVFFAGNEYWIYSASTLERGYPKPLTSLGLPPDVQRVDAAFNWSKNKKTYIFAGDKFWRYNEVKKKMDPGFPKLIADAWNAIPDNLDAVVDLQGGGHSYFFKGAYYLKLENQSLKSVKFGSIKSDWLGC

SMILES: C=C1C(=O)O[C@@H]2C3O[C@]3(C)CC/C=C(\C)CC[C@@H]12 (stereo partly drawn)
- pIC50 (MCF7 [1]): < 4.70

SMILES: C/C1=C\CC[C@@]2(C)O[C@H]2[C@H]2OC(=O)C(CNc3ccn(C4OC(CO)[C@H](O)[C@@H]4O)c(=O)n3)[C@@H]2CC1 (stereo partly drawn)
- IC50 at 48 h [2]: 1740 nM

SMILES: C/C1=C\CC[C@@]2(C)O[C@H]2[C@H]2OC(=O)C(CNC(Cc3ccc(N(CCCl)CCCl)cc3)C(=O)O)[C@@H]2CC1 (stereo partly drawn)
- Retention_time [3]: 14.5 min
- tissue uptake at 2 h [4]: 1.63 %ID/g

SMILES: CC1(C)CC(NC(=O)C(N)Cc2ccc(N(CCCl)CCCl)cc2)CC(C)(C)N1[O] (stereo not drawn)
- pIC50 (K562): 4.44

SMILES: NC1=NC2N=CC(CNc3ccc(C(=O)NCC(CCC(=O)NCC(=O)NCC(=O)NC(Cc4ccc(N(CCCl)CCCl)cc4)C(=O)O)C(=O)NCC(=O)NCC(=O)NC(Cc4ccccc4)C(=O)O)cc3)N=C2C(=O)N1 (stereo not drawn)
- IC50 (SK-OV-3): 4.1 µg/mL (≈ 3.66 µM)

SMILES: CN(C)c1ccc(/C=N\Nc2ccc(CN[C@@H](Cc3ccc(N(CCCl)CCCl)cc3)C(=O)O)cc2)cc1
- tissue uptake at 4 h [5]: 0.98 %ID/g

SMILES: CCOC(=O)CNC(=O)[C@H](Cc1ccc(N(CCCl)CCCl)cc1)NC(=O)[C@@H](N)[C@@H](C)CC
- pIC50 (HT-29): 4.40

SMILES: C[N+](C)(C)CCCNC(=O)[C@@H](N)Cc1ccc(N(CCCl)CCCl)cc1
- pIC50 (H-EMC-SS): 4.85
- pIC50 (SAOS-2 [6]): 4.43

SMILES: O=C(O)CN(CCN(CC(=O)O)CC(=O)O)CCN(CC(=O)O)CC(=O)N[C@@H](Cc1ccc(N(CCCl)CCCl)cc1)C(=O)O
- Retention_time [3]: 10.72 min
- tissue uptake at 2 h [4]: 1.03 %ID/g

SMILES: COC(=O)C(Cc1ccc(N(CCCl)CCCl)cc1)NC(=O)c1ccc(-c2ccc(C(=N)NC(C)C)cc2)o1 (stereo not drawn)
- pIC50 (MCF7 [7]): 4.64

SMILES: O=C(O)C(Cc1ccc(N(CCCl)CCCl)cc1)NCC(=O)N1CCCC1C(=O)O (stereo not drawn)
- inhibition at 15 µM (MDA-MB-231 [8]): 55%
- inhibition at 15 µM (MDA-MB-231 [9]): 30%

SMILES: CC(C)C[C@H](NC(=O)CNC(=O)[C@H](CC(C)C)NC(=O)[C@@H]1CCCN1C(=O)C(N)Cc1ccc(N(CCCl)CCCl)cc1)C(=O)N[C@@H](C)C(=O)NCC(=O)NCC(P(=O)(O)O)P(=O)(O)O (stereo partly drawn) (H-[ξPhe(4-N(CH2CH2Cl)2)]PLGLAG-X1)
- pIC50 (MC3T3-E1): 6.10
- pIC50 (SAOS-2 [10]): 6.10
- t1/2 [11]: 75 min
- Drug excretion [12]: 75%
- pIC50 (U2OS): 6.10

SMILES: Nc1ccn([C@@H]2O[C@H](CO)[C@@H](O)[C@@H]2O)c(=O)n1 [CYTARABINE]
- pIC50 (MCF7 [1]): < 4.70

SMILES: CCOC(=O)[C@H](Cc1ccc(F)cc1)NC(=O)[C@@H](N)Cc1ccc(N(CCCl)CCCl)cc1 [MELPHALAN FLUFENAMIDE]
- Ratio IC50 (Lymphoma cell line [13]): 49
- pIC50 (Lymphoma cell line [14]): 7.96

SMILES: N[C@@H](Cc1ccc(N(CCCl)CCCl)cc1)C(=O)O [MELPHALAN]
- Cp(f) [15]: 2.5 µg/mL
- fraction unbound [16]: 0.31
- inhibition at 15 µM (MDA-MB-231 [8]): 40%
- pIC50 (MC3T3-E1): 6.17
- pIC50 (SAOS-2 [10]): 6.17
- pIC50 (K562): 4.18
- pIC50 (MCF7 [7]): 4.11
- PPB [17]: 40 µg/mL
- pIC50 (U2OS): 6.17
- pIC50 (MCF7 [1]): < 4.70
